Assay results from patent US9241928B2, “Antimicrobial compounds” (The General Hospital Corporation, priority 2009, dated 2016).
Values after ≈ are worked out from the molar mass of the structure shown.

Assays:
E. faecalis MMH594 = test: MIC assay, E. faecalis in vitro; type: cell-based; details: Enterococcus faecalis; E. faecalis MMH594 in 20% BHI, 80% M9, 37° C., 15 hours, scored by eye
Protocol: A culture of E. faecalis MMH594 was grown overnight in BHI broth to stationary phase at 37° C. with aeration. The culture was diluted to an approximate density of […] in worm infection media (20% BHI, 80% M9 buffer). 12.5 μl of the bacterial culture dilution was inoculated into 384-well plates containing 12.5 μl of 2-fold serial dilutions of a test compound. […] Plates were incubated at 37° C. for 15 hours and scored by eye for bacterial growth.

[1] = tested on: MRSA infection in Caenorhabditis elegans; test: MRSA infection assay in C. elegans (liquid); type: in vivo; details: 6.25 and 12.5 μg/ml, 5 days
From the text: To screen/test candidate compounds for their efficacy against Methicillin-resistant Staphylococcus aureus (MRSA) using Caenorhabditis elegans (C. elegans), a liquid high throughput screening assay was developed. In contrast to the Enterococcus faecalis infection assay, where worms are pre-infected with E. faecalis on agar prior to the start of the screening assay and then infected worms are transferred to microtiter plates using the COPAS BioSort robot, the infection of worms with MRSA occurred directly in the liquid medium. This liquid infection protocol with MRSA was developed because the COPAS BioSort, the large particle sorter used to dispense worms into multiwell plates, is a pressurized system that can generate aerosols. Because MRSA is a potentially dangerous pathogen for immune competent individuals, sorting MRSA-infected worms in the COPAS BioSort was deemed to be potentially hazardous.
The MRSA infection assay was carried out by incubating C. elegans with three MRSA strains (i.e., USA100, USA400 and MW2) in 96 or 384-well microtiter plates and assessing whether worms were live or dead after a 5 day incubation.
The MRSA infection assay was performed as follows: Worms were grown on agar using non-pathogenic E. coli as a food source until they reached the L4/young adult stage. A small volume of M9 buffer was added to the agar plates to float worms gently off the food source. The worms were then transferred into a large conical tube and washed 2 times by allowing worms to settle, aspirating the supernatant and adding fresh M9 buffer. 15 worms were then transferred using a COPAS BioSort large particle sorter into a 96-well plate containing […] of M9. […] After the worms were stained for 18 hours, images of the plates were acquired in bright field and red fluorescence channels using a Molecular Devices Discovery-1 or ImageXpress automated microscopy system. The total number of worms was counted in the bright field image and the number of dead animals are determined by positive SYTOX staining. […]

[2] = tested on: P. aeruginosa strain PA14 infection in Caenorhabditis elegans; test: Liquid assay for PA14 infection of C. elegans; type: in vivo
Protocol: A liquid assay for PA14 infection of C. elegans in a 96-well plate format was developed. In brief, temperature-sterile glp-4 and glp-4;sek-1 worms were synchronized according to standard protocols. L1 larvae were plated, incubated for 16 hours at 15° C., and then for an additional 48 hours at […], which brought them to a young adult stage. In parallel, PA14 bacteria were grown overnight prior to being plated on SK medium plates (see Tan et al., Proc. Natl. Acad. Sci., 96(2): 715-720). PA14-inoculated plates were incubated for 24 hours at 37° C. prior to an 18 hours incubation at 25° C. Subsequently, bacteria were removed from plates and resuspended in S Basal media (see Stiernagle, (2006) “Maintenance of C. elegans” WormBook, ed. The C. elegans. Research Community http://www.wormbook.org/). 96-well polystyrene plates were prepared with a medium containing either 20% SK and 80% S Basal or 50% SK and 50% S Basal, with a bacterial density of OD600=0.03. […] Dispensation of 25 young adult glp-4 or glp-4; sek-1 worms to each well using a COPAS BioSort robot brought the final total volume to […]. After worms were added, each plate was sealed with a gas permeable membrane and incubated for 48 hours at 25° C. […] Worms were stained for 18 hours at 20° C. and each well was photographed using bright-field and red fluorescence channels with a Molecular Devices Discovery-1 Microscope.

With `NNc1ccc2c(Cl)cc(Cl)c(O)c2n1` [Compound 11] the MIC (E. faecalis MMH594) was 6.25 µg/mL (≈ 25.6 µM), the “survival of MRSA-infected worms (FIG. 4)” value [1] was “resulted in survival of MRSA-infected worms” and the “mortality of PA14-infected worms” value ([2]; 3.125 μg/mL, glp-4 and glp-4;sek-1 worms, 48 hours) was ≤ 30%. For the same compound, the “effect of increasing the dosage on efficacy” value ([2]; 6.25 and 20 μg/mL versus 3.125 μg/mL) was “did not increase its efficacy”.
